Assay results as given in patent US20170044100A1, “INHIBITORS OF DRUG-RESISTANT MYCOBACTERIUM TUBERCULOSIS” (THE JOHNS HOPKINS UNIVERSITY, priority 2014, published 2017).
Converted amounts (≈) assume the structure as drawn. Read-outs that look alike come from different tables or passages of the source.

Legend:
[1] = test system: M. tuberculosis strain H37Rv; assay: microbe, parasite or virus in culture; format: cell-based, Mycobacterium tuberculosis; set-up: MICMABA: unit not given here; settings: for activity in comparison to the 4,6-dimethyl analog (1h): H37Rv MIC relative to 1h
[2] = Cytotoxicity assay on Vero cells (alamar blue); settings: African green monkey, Vero cells (ATCC CCL-81)
Vero cells = assay: Cytotoxicity assay on Vero cells (alamar blue); settings: for IC50: Chlorocebus sabaeus, Vero
M. tuberculosis H37Rv [3] = assay: microbe, parasite or virus in culture; format: cell-based, Mycobacterium tuberculosis; set-up: MICBD / MBCBD: unit not given here
[4] = test system: V4207 (drug susceptible strain of M. tuberculosis); assay: microbe, parasite or virus in culture; format: cell-based; settings: Mycobacterium tuberculosis, MABA, read-out: MIC V4207 (DS)
M. tuberculosis H37Rv [5] = format: cell-based, Mycobacterium tuberculosis; settings: 4× MIC
M. tuberculosis H37Rv [6] = format: in vivo, BALB/c mice
M. tuberculosis H37Rv [7] = settings: 100 mg/kg oral gavage
[8] = Mycobacterium tuberculosis, H37RV
[9] = Mycobacterium tuberculosis, parental H37Rv strain, read-out: MIC for H37Rv
[10] = Mycobacterium tuberculosis, H37RV, read-out: MIC for H37Rv

`Cc1cc(C)c2cc(C(=O)NC3C4CC5CC(C4)CC3C5)[nH]c2c1` (stereo not shown) [Compound 14, N-(2-Adamantyl)-4,6-dimethyl-1H-indole-2-carboxamide] showed an MICMABA ([1]; H37Rv, MABA, Table 9) of 0.0039, an MIC [1, 8] of 0.012 µM and an IC50 at 72 h [2] greater than 200 µM. For the same compound, the IC50 (Vero cells; read-out: IC50 Vero Cells) was greater than 64 µg/mL.

Compound `Cc1cc(C)c2cc(C(=O)NC3CCCCC3)n(C)c2c1` [Compound 18, N-Cyclohexyl-1,4,6-trimethyl-11-1-indole-2-carboxamide] has an MICMABA [1] of 128, an MIC [1, 8] of 450 µM and an MICBD (M. tuberculosis H37Rv [3]; H37Rv, broth dilution, Table 9) of 128.

Work on `Cc1cc(C)c2c(C(=O)NC34CC5CC(CC(C5)C3)C4)c[nH]c2c1` [Compound 43, N-(1-Adamantyl)-4,6-dimethyl-1H-indole-3-carboxamide] yielded an MICMABA ([1]; H37Rv, MABA, Table 9) greater than 64.

With `Cc1cc(C)c2cc(C(=O)Nc3ccc(C)c(F)c3)[nH]c2c1` [Compound 5, N-(3-Fluoro-4-methylphenyl)-4,6-dimethyl-1H-indole-2-carboxamide] the MICMABA ([1]; H37Rv, MABA, Table 9) was 0.25, the MIC [1, 8] was 1.7 µM and the MBCBD (M. tuberculosis H37Rv [3]; H37Rv, broth dilution, Table 9) was 8. It also gave an MICBD (M. tuberculosis H37Rv [3]; H37Rv, broth dilution, Table 9) of 0.5, an IC50 at 72 h [2] greater than 200 µM and an IC50 (Vero cells; read-out: IC50 Vero Cells) greater than 64 µg/mL.

`COc1ccc2cc(C(=O)NC34CC5CC(CC(C5)C3)C4)[nH]c2c1` [Compound 30, N-(1-Adamantyl)-6-methoxy-1H-indole-2-carboxamide] showed an MICMABA ([1]; H37Rv, MABA, Table 9) of 0.25 and an IC50 (Vero cells; read-out: IC50 Vero Cells, Vero cells, Table 9) of 64 µg/mL (≈ 197 µM).

With `Cc1cc(C)c2cc(C(=O)NCC3CCCCC3)[nH]c2c1` [Compound 15, N-(Cyclohexylmethyl)-4,6-dimethyl-1H-indole-2-carboxamide] the MICMABA ([1]; H37Rv, MABA, Table 9) was 0.25, the MIC [1, 8] was 0.88 µM and the MBCBD (M. tuberculosis H37Rv [3]; H37Rv, broth dilution, Table 9) was 0.25. For the same compound, the MICBD (M. tuberculosis H37Rv [3]; H37Rv, broth dilution, Table 9) was 0.25, the IC50 at 72 h [2] was greater than 200 µM and the IC50 (Vero cells; read-out: IC50 Vero Cells) was greater than 64 µg/mL.

In the case of “N-(2,3,5 -methyl, 4-dimethyl)-6-bromo-1H-indole-2-carboxamide [BB]”, the MICMABA ([1]; H37Rv, MABA, Table 9) is reported as 0.0039- 0.0078.

Compound `Cc1cc(C)c2cc(C(=O)N(C)C3CCCCC3)[nH]c2c1` [Compound 16, N-Cyclohexyl-N,4,6-trimethyl-/H-indole-2-carboxamide] has an MIC [1] of 450 µM, an MICMABA [1] of 32 and an MICBD (M. tuberculosis H37Rv [3]) of 128.

For `Cc1cc(C)c2cc(C(=O)NC3CCCCCC3)[nH]c2c1` [Compound 11, N-Cycloheptyl-4,6-dimethyl-1H-indole-2-carboxamide], the MICMABA ([1]; H37Rv, MABA, Table 9) was 0.0156, the MIC [1, 8] was 0.055 µM and the MIC ([1]; Mycobacterium tuberculosis, control strains H37Rv and V4207, read-out: MIC) was 0.0156 to 0.0313 µg/mL. The MIC [1, 9] was 0.0156 to 0.0313 µg/mL, the MIC [4] was 0.11 µM (≈ 0.0313 µg/mL) and the MBCBD (M. tuberculosis H37Rv [3]; H37Rv, broth dilution, Table 9) was 0.0312. The MICBD (M. tuberculosis H37Rv [3]; H37Rv, broth dilution, Table 9) was 0.0156, the MBC (M. tuberculosis H37Rv [3]; Mycobacterium tuberculosis, H37RV, read-out: minimum bactericidal concentration (MBC)) was 0.0313 µg/mL (≈ 0.11 µM) and the “time to kill at least 4 log10 CFUs” value (M. tuberculosis H37Rv [5]) was no more than 3 days. It also gave an IC50 at 72 h [2] greater than 200 µM, an IC50 (Vero cells; read-out: IC50 Vero Cells) greater than 64 µg/mL and an IC50 (Vero cells; read-out: IC50 for Vero cell viability) greater than 64 µg/mL. For the same compound, the “Selectivity Index” value (Vero cells; Vero IC50 versus MIC, Table 9) was greater than 2048 and the selectivity index (Vero cells; toxicity versus MIC) was greater than 2048.

Compound `Cc1cc(C)c2cc(C(=O)Nc3ccncc3)[nH]c2c1` [Compound 6, N-(4-Pyridinyl)-4,6-dimethyl-1H-indole-2-carboxamide] has an MICMABA ([1]; H37Rv, MABA, Table 9) of 32, an MIC [1, 8] of 240 µM and an MICBD (M. tuberculosis H37Rv [3]; H37Rv, broth dilution, Table 9) of 64.

Compound `O=C(NC1CCCCC1)c1cc2ccccc2[nH]1` [Compound 26, N-Cyclohexyl-1H-indole-2-carboxamide] has an MICMABA ([1]; H37Rv, MABA, Table 9) of 128 and an MICBD (M. tuberculosis H37Rv [3]; H37Rv, broth dilution, Table 9) greater than 128.

`Cc1cc(C)c2cc(C(=O)NC3CC3)[nH]c2c1` [Compound 10, N-Cyclopropyl-4,6-dimethyl-1H-indole-2-carboxamide] showed an MICMABA ([1]; H37Rv, MABA, Table 9) of 64, an MIC [1, 8] of 561 µM and an MICBD (M. tuberculosis H37Rv [3]; H37Rv, broth dilution, Table 9) of 128.

`Cc1cc(C)c2cc(C(=O)NC3CCN(C(C)C)CC3)[nH]c2c1` [Compound 8, N-(1-Isopropyl-4-piperidinyl)-4,6-dimethyl-1H-indole-2-carboxamide] showed an MICMABA ([1]; H37Rv, MABA, Table 9) of 64 and an MIC [1, 8] of 204 µM.

With `Cc1ccc(NC(=O)c2cc3ccccc3[nH]2)cc1F` [Compound 27, N-(3-Fluoro-4-methylphenyl)-1H-indole-2-carboxamide] the MICMABA ([1]; H37Rv, MABA, Table 9) was 128 and the MICBD (M. tuberculosis H37Rv [3]; H37Rv, broth dilution, Table 9) was 128.

`O=C(NC12CC3CC(CC(C3)C1)C2)c1cc2ccc(O)cc2[nH]1` [Compound 32, N-(1-Adamantyl)-6-hydroxy-1H-indole-2-carboxamide] showed an MICMABA ([1]; H37Rv, MABA, Table 9) of 2 and an IC50 (Vero cells; read-out: IC50 Vero Cells) of 16 µg/mL (≈ 51.5 µM).

With `NNC(=O)c1ccncc1` [Isoniazid, reference compound] the MICMABA ([1]; H37Rv, MABA, Table 9) was 0.04, the MIC [1, 8] was 0.29 µM and the MIC [1, 9] was 0.04 µg/mL. For the same compound, the “Mean lung CFU counts (standard deviation), Day 7” value (M. tuberculosis H37Rv [6]; isoniazid 10 mg/kg oral gavage daily (5 days per week), Day 7) was 5.508 (0.124), the “Mean lung CFU counts (standard deviation), Day 14” value (M. tuberculosis H37Rv [6]; isoniazid 10 mg/kg oral gavage daily, Day 14) was 5.266 (0.089) and the “Mean lung CFU counts (standard deviation), Day 28” value (M. tuberculosis H37Rv [6]; isoniazid 10 mg/kg oral gavage daily, Day 28) was 4.561 (0.088).

Compound `Cc1cc(C)c2cc(C(=O)N3CCCCC3)[nH]c2c1` [Compound 17, (4,6-Dimethyl-11-1-indo1-2-yl)(piperidin-1-yl)methanone] has an MIC [1] greater than 499 µM.

`Cc1cc(C)c2cc(C(=O)NC34CC5CC(CC(C5)C3)C4)[nH]c2c1` [Compound 13, N-(1-Adamantyl)-4,6-dimethyl-1H-indole-2-carboxamide] showed an MICMABA ([1]; H37Rv, MABA, Table 9) of 0.0019, an MIC [1, 8] of 0.012 µM and an IC50 at 72 h [2] greater than 200 µM. The IC50 (Vero cells; read-out: IC50 Vero Cells) was greater than 64 µg/mL.

With `CO[C@H]1/C=C/O[C@@]2(C)Oc3c(C)c(O)c4c(O)c(c(/C=N/N5CCN(C)CC5)c(O)c4c3C2=O)NC(=O)/C(C)=C\C=C\[C@H](C)[C@H](O)[C@@H](C)[C@@H](O)[C@@H](C)[C@H](OC(C)=O)[C@@H]1C` [Rifampin] the MIC [1, 10] was 0.125 µg/mL.

In the case of `Cc1cc(C)c2c(C(=O)NC3CCCCCC3)c[nH]c2c1` [Compound 41, N-Cycloheptyl-4,6-dimethyl-1H-indole-3-carboxamide], the MICMABA ([1]; H37Rv, MABA, Table 9) is reported as greater than 64.

`CC[C@@H](CO)NCCN[C@@H](CC)CO` [Ethambutol] gave an MIC [1, 9] of 1 µg/mL.

For `Cc1cc(C)c2cc(C(=O)NC3CCCN(C)CC3)[nH]c2c1` (stereo not shown) [Compound 9, N-(1-Methyl-4-azepanyl)-4,6-dimethyl-1H-indole-2-carboxamide], the MICMABA ([1]; H37Rv, MABA, Table 9) was 128 and the MIC [1, 8] was 428 µM.

For `O=C(NC1CCCCCCC1)c1cc2c(F)cc(F)cc2[nH]1` [Compound 29, N-Cyclooctyl-4,6-difluoro-1H-indole-2-carboxamide], the “activity in comparison to the 4,6-dimethyl analog (1h)” value [1] was 8 fold and the MICMABA ([1]; H37Rv, MABA, Table 9) was 0.031.

In the case of Capreomycin, the “MIC for H37Rv” value ([1]; parental H37Rv strain) is reported as 1 µg/mL.

With “N-(2,3,5 -methyl, 4-dimethyl)-4,6-difluoro-1H-indole-2-carboxamide” the “activity in comparison to the 4,6-dimethyl analog (1h)” value [1] was “as active as 1h”, the MICMABA ([1]; H37Rv, MABA, Table 9) was 0.0039 and the “bioavailability in vivo by serum inhibition titration” value (M. tuberculosis H37Rv [7]; Balb/c mice) was “bioavailable in vivo”. For the same compound, the “serum inhibition activity compared with isoniazid” value (M. tuberculosis H37Rv [7]; isoniazid positive control) was “comparable to that of isoniazid”.

For `NCC[C@H](O)C(=O)N[C@@H]1C[C@H](N)[C@@H](O[C@H]2O[C@H](CN)[C@@H](O)[C@H](O)[C@H]2O)[C@H](O)[C@H]1O[C@H]1O[C@H](CO)[C@@H](O)[C@H](N)[C@H]1O` [Amikacin], the MIC [1, 9] was 1 µg/mL.

With BM212 the “MIC for H37Rv” value ([1]; parental H37Rv strain) was 2 µg/mL.

With `Cc1cc(C)c2cc(C(=O)NC3CCN(C)CC3)[nH]c2c1` [Compound 7, N-(1-Methyl-4-piperidinyl)-4,6-dimethyl-1H-indole-2-carboxamide] the MICMABA [1] was 128 and the MIC [1, 8] was 448 µM.

Work on `Cc1cc(C)c2c(C(=O)NC3CCCCCCC3)c[nH]c2c1` [Compound 42, N-Cyclooctyl-4,6-dimethyl-1H-indole-3-carboxamide] yielded an MICMABA ([1]; H37Rv, MABA, Table 9) greater than 64.

Work on `Cc1cc(C)c2c(C(=O)NC3C4CC5CC(C4)CC3C5)c[nH]c2c1` (stereo not shown) [Compound 44, N-(2-Adamantyl)-4,6-dimethyl-1H-indole-3-carboxamide] yielded an MICMABA ([1]; H37Rv, MABA, Table 9) greater than 64.

With `CC(C)=CCC/C(C)=C/CNCCNC1C2CC3CC(C2)CC1C3` (stereo not shown) [SQ109] the MIC [1, 9] was 0.25 µg/mL.

For `O=C(NC1CCCCCCC1)c1cc2c(Cl)cc(Cl)cc2[nH]1` [Compound 70, N-Cyclooctyl-4,6-dichloro-1H-indole-2-carboxamide], the MICMABA ([1]; H37Rv, MABA, Table 9) was 0.0039.

`COc1c(N2C[C@@H]3CCCN[C@@H]3C2)c(F)cc2c(=O)c(C(=O)O)cn(C3CC3)c12` [Moxifloxacin, reference compound] gave an MIC [1, 9] of 0.0625 to 0.125 µg/mL.

`C[C@H]1COc2c(N3CCN(C)CC3)c(F)cc3c(=O)c(C(=O)O)cn1c23` [Levofloxacin, reference compound] gave an MIC [1, 9] of 0.25 µg/mL.

With `NC[C@H]1O[C@H](O[C@H]2[C@H](O)[C@@H](O[C@H]3O[C@H](CO)[C@@H](O)[C@H](N)[C@H]3O)[C@H](N)C[C@@H]2N)[C@H](O)[C@@H](O)[C@@H]1O` [Kanamycin, reference compound] the MIC [1, 10] was 2 µg/mL.
